Reference: the Kinase Knowledgebase extract (Sharma et al. 2016)

Target: PIK3CG (human) (UniProt P48736)
Test: Assessment of PIK3CG Kinase Activity

Sequence of PIK3CG (human) (P48736 whole entry, looked up): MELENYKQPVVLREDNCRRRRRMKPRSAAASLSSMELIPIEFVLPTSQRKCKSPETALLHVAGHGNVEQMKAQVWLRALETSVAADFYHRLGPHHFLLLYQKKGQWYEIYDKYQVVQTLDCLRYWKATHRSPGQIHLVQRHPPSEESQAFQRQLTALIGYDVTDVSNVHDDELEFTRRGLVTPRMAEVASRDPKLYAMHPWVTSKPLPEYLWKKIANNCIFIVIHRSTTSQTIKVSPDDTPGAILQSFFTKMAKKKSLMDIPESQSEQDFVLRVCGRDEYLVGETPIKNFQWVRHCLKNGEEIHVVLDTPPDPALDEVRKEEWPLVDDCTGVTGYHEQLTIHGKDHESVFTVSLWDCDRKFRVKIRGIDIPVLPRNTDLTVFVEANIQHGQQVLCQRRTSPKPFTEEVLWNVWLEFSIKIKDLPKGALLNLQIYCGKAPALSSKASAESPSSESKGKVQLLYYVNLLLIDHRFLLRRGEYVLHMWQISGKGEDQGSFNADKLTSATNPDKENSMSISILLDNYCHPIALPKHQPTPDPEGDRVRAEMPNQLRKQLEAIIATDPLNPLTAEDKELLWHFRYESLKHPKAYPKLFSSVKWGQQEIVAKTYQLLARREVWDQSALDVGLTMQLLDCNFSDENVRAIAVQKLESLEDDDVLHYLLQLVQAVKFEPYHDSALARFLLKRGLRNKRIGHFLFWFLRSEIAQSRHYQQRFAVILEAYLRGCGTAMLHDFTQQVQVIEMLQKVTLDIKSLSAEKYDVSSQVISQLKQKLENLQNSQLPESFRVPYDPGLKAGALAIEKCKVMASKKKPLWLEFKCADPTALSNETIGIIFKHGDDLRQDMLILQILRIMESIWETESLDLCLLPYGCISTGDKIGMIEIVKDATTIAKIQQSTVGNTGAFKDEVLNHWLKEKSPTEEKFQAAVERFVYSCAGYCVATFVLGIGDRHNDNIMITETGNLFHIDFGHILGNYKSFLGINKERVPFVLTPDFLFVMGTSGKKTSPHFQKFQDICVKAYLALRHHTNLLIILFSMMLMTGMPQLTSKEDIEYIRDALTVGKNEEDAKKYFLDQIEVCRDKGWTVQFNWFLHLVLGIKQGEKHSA

| SMILES | IC50 [nM] |
| --- | --- |
| CC(C)c1noc(CCNC(=O)Nc2nc3c(s2)-c2c(c(-c4cccnc4)nn2-c2ccccc2Cl)CC3)n1 | < 800 |
| O=C(Nc1nc2c(s1)-c1c(c(-c3ccccc3)nn1-c1ccccc1Cl)CC2)NC1CCN(S(=O)(=O)c2ccccc2)CC1 | < 800 |
| CN(Cc1cccc(CNC(=O)Nc2nc3c(s2)-c2c(c(-c4cccnc4)nn2-c2ccccc2Cl)CC3)c1)C(=O)OC(C)(C)C | < 800 |
| NC(=O)c1cccc(CNC(=O)Nc2nc3c(s2)-c2c(c(-c4cccnc4)nn2-c2ccccc2Cl)CC3)c1 | < 800 |
| CCc1csc(CCNC(=O)Nc2nc3c(s2)-c2c(c(C4CC4)nn2-c2ccccc2Cl)CC3)n1 | < 800 |
| CCn1cnc(CCNC(=O)Nc2nc3c(s2)-c2c(c(-c4cccnc4)nn2C2CCN(C)CC2)CC3)c1 | < 800 |
| Cn1cccc1CCNC(=O)Nc1nc2c(s1)-c1c(c(-c3cccnc3)nn1-c1ccccc1Cl)CC2 | < 800 |
| CCc1csc(CCNC(=O)Nc2nc3c(s2)-c2c(c(-c4cccnc4)nn2C2CCN(C)CC2)CC3)n1 | < 800 |
| CCN(CC)CCNC(=O)Nc1nc2c(s1)-c1c(c(-c3cncnc3)nn1-c1ccccc1Cl)CC2 | < 800 |
| CCN(CC)C(=O)N1CCC[C@@H]1CNC(=O)Nc1nc2c(s1)-c1c(c(-c3cncnc3)nn1-c1ccccc1Cl)CC2 | < 800 |
| N#Cc1cccc(CNC(=O)Nc2nc3c(s2)-c2c(c(-c4cncnc4)nn2-c2ccccc2Cl)CC3)c1 | < 800 |
| O=C(Nc1nc2c(s1)-c1c(c(-c3cncnc3)nn1-c1ccccc1Cl)CC2)NC1CCCNC1 (stereo not given) | < 800 |
| CC(C)c1cccc(CNC(=O)Nc2nc3c(s2)-c2c(c(-c4cccnc4)nn2C2CCN(C)CC2)CC3)c1 | < 800 |
| CC1(C)NC(=O)N(Cc2ccc(CNC(=O)Nc3nc4c(s3)-c3c(c(-c5cccnc5)nn3-c3ccccc3Cl)CC4)cc2)C1=O | < 800 |
| CC(C)(C)OC(=O)N1CCC[C@@H]1CNC(=O)Nc1nc2c(s1)-c1c(c(-c3cccnc3)nn1-c1ccccc1Cl)CC2 | < 800 |
| O=C(NCc1cccc(N2CCNC2=O)c1)Nc1nc2c(s1)-c1c(c(Nc3ccccn3)nn1-c1ccccc1)CC2 | < 800 |
| O=C(NCc1cccc(-c2ccccc2)c1)Nc1nc2c(s1)-c1c(c(-c3cncnc3)nn1-c1ccccc1Cl)CC2 | < 800 |
| CN[C@@H](C)C(=O)N1CCC[C@@H]1CNC(=O)Nc1nc2c(s1)-c1c(c(-c3cncnc3)nn1-c1ccccc1Cl)CC2 | < 800 |
| O=C(NC[C@H]1CCN(C(=O)N2CCCC2)C1)Nc1nc2c(s1)-c1c(c(-c3ccccc3)nn1-c1cccc(Cl)c1)CC2 | < 800 |
| CC(C)c1cnc(CCNC(=O)Nc2nc3c(s2)-c2c(c(-c4ccccc4)nn2-c2cccc(Cl)c2)CC3)o1 | < 800 |
| CCc1cnc(CCNC(=O)Nc2nc3c(s2)-c2c(c(-c4cccnc4)nn2C2CCN(C4CCCC4)CC2)CC3)o1 | < 800 |

| SMILES | IC50 [nM] |
| --- | --- |
| CC(C)(C)OC(=O)N1CCC[C@@H]1CNC(=O)Nc1nc2c(s1)-c1c(c(-c3ccccc3)nn1-c1ccccc1Cl)CC2 | < 800 |
| CCc1cccc(CNC(=O)Nc2nc3c(s2)-c2c(c(-c4cccnc4)nn2C2CCN(C)CC2)CC3)c1 | < 800 |
| CC(=O)N(C)c1cccc(CNC(=O)Nc2nc3c(s2)-c2c(c(-c4cccnc4)nn2-c2ccccc2Cl)CC3)c1 | < 800 |
| NS(=O)(=O)c1ccc(-n2nc(-c3cccnc3)c3c2-c2sc(NC(=O)NCc4cccc(N5CCNC5=O)c4)nc2CC3)c(Cl)c1 | < 800 |
| CCc1csc(CCNC(=O)Nc2nc3c(s2)-c2c(c(-c4cccnc4)nn2C2CCN(C4CCCC4)CC2)CC3)n1 | < 800 |
| CN1CCN(C(=O)Nc2nc3c(s2)-c2c(cnn2-c2ccccc2)CC3)CC1 | < 800 |
| CC(C)(CNc1ccc(C(C)(C)C)cc1)NC(=O)Nc1nc2c(s1)-c1c(c(-c3cccnc3)nn1-c1ccccc1Cl)CC2 | < 800 |
| O=C(NCc1ccc(-c2ncc[nH]2)cc1)Nc1nc2c(s1)-c1c(c(-c3cncnc3)nn1-c1ccccc1Cl)CC2 | < 800 |
| CC(C)(C)CC(=O)N1CCC[C@@H]1CNC(=O)Nc1nc2c(s1)-c1c(c(-c3cncnc3)nn1-c1ccccc1Cl)CC2 | < 800 |
| CCc1cnc(CCNC(=O)Nc2nc3c(s2)-c2c(c(-c4cncnc4)nn2-c2ccccc2Cl)CC3)o1 | < 800 |
| CN(C)C(=O)CCCNC(=O)Nc1nc2c(s1)-c1c(c(-c3ccccc3)nn1-c1ccccc1Cl)CC2 | < 800 |
| O=C(NC[C@H]1CCCN1)Nc1nc2c(s1)-c1c(c(-c3cncnc3)nn1-c1ccccc1F)CC2 | < 800 |
| CN1CCC(n2nc(-c3cccnc3)c3c2-c2sc(NC(=O)NCc4cccc(N5CCNC5=O)c4)nc2CC3)CC1 | < 800 |
| O=C(NC[C@H]1CCCN1C(=O)N1CCCC1)Nc1nc2c(s1)-c1c(c(-c3cncnc3)nn1-c1ccccc1Cl)CC2 | < 800 |
| O=C(NC[C@H]1CCNC1)Nc1nc2c(s1)-c1c(c(-c3cncnc3)nn1-c1ccccc1Cl)CC2 | < 800 |
| O=C(NCc1nnn[nH]1)Nc1nc2c(s1)-c1c(c(-c3cncnc3)nn1-c1ccccc1Cl)CC2 | < 800 |
| CCc1cnc(CCNC(=O)Nc2nc3c(s2)-c2c(c(C4CC4)nn2-c2ccccc2Cl)CC3)o1 | < 800 |
| O=C(NCC1CCCNC1)Nc1nc2c(s1)-c1c(c(-c3cncnc3)nn1-c1ccccc1Cl)CC2 (stereo not given) | < 800 |
| C[C@@H](NC(=O)Nc1nc2c(s1)-c1c(c(-c3ccccc3)nn1-c1ccccc1Cl)CC2)C(=O)N1CCCCC1 | < 800 |
| O=C(NCc1cccc(CN2CCOCC2)n1)Nc1nc2c(s1)-c1c(c(-c3cncnc3)nn1-c1ccccc1Cl)CC2 | < 800 |

Other lines, results leading:

| IC50 [nM] | SMILES |
| --- | --- |
| < 800 | Cc1nc(C)c(S(=O)(=O)NCCNC(=O)Nc2nc3c(s2)-c2c(c(-c4ccccc4)nn2-c2ccccc2Cl)CC3)s1 |
| < 800 | CC(C)(CNc1ncccn1)NC(=O)Nc1nc2c(s1)-c1c(c(-c3cccnc3)nn1-c1ccccc1Cl)CC2 |
| < 800 | CC(=O)Nc1cccc(CNC(=O)Nc2nc3c(s2)-c2c(c(-c4cccnc4)nn2C2CCN(C)CC2)CC3)c1 |
| < 800 | O=C(NCCc1ccc2c(c1)OCCO2)Nc1nc2c(s1)-c1c(c(-c3cncnc3)nn1-c1ccccc1Cl)CC2 |
| < 800 | O=C(NCCCC(=O)N1CCOCC1)Nc1nc2c(s1)-c1c(c(-c3ccccc3)nn1-c1ccccc1Cl)CC2 |
| < 800 | CCc1csc(CCNC(=O)Nc2nc3c(s2)-c2c(c(-c4cccnc4)nn2-c2ccccc2Cl)CC3)n1 |
| < 800 | CN(C)C(=O)Nc1nc2c(s1)-c1c(c(-c3cncnc3)nn1-c1ccccc1Cl)CC2 |
| < 800 | COc1ccccc1C1CCN(C(=O)Nc2nc3c(s2)-c2c(c(-c4cccnc4)nn2-c2ccccc2Cl)CC3)C1 (stereo not given) |
| < 800 | CNC(=O)[C@@H](C)NC(=O)Nc1nc2c(s1)-c1c(c(-c3ccccc3)nn1-c1ccccc1Cl)CC2 |
| < 800 | O=C(NCCN1CCOCC1)Nc1nc2c(s1)-c1c(c(-c3cncnc3)nn1-c1ccccc1F)CC2 |
| < 800 | O=C(Nc1ccccc1)Nc1nc2c(s1)-c1c(c(-c3cncnc3)nn1-c1ccccc1Cl)CC2 |
| < 800 | CC(C)(C)OC(=O)N1CCCCC1CNC(=O)Nc1nc2c(s1)-c1c(c(-c3cccnc3)nn1-c1ccccc1Cl)CC2 (stereo not given) |
| < 800 | O=C(NCCNS(=O)(=O)C1CC1)Nc1nc2c(s1)-c1c(c(-c3ccccc3)nn1-c1ccccc1Cl)CC2 |
| < 800 | NC(=O)Nc1nc2c(s1)-c1c(c(-c3cncnc3)nn1-c1ccccc1F)CC2 |
| < 800 | O=C(NCCc1nc(C2CC2)no1)Nc1nc2c(s1)-c1c(c(-c3cccnc3)nn1-c1ccccc1Cl)CC2 |
| < 800 | CC(C)(C)OCCNC(=O)Nc1nc2c(s1)-c1c(c(-c3ccccc3)nn1-c1ccccc1Cl)CC2 |
| < 800 | CC(C)(C)OC(=O)N1CCCC(CNC(=O)Nc2nc3c(s2)-c2c(c(-c4cncnc4)nn2-c2ccccc2Cl)CC3)C1 (stereo not given) |
| < 800 | CN(C)C(=O)N1CC[C@H](CNC(=O)Nc2nc3c(s2)-c2c(c(-c4ccccc4)nn2-c2cccc(Cl)c2)CC3)C1 |
| < 800 | CC(C)c1noc(CCNC(=O)Nc2nc3c(s2)-c2c(c(C4CC4)nn2-c2ccccc2Cl)CC3)n1 |
| < 800 | CC(C)NC(=O)Nc1nc2c(s1)-c1c(c(-c3cccnc3)nn1-c1ccccc1Cl)CC2 |

| IC50 [nM] | SMILES |
| --- | --- |
| < 800 | CCn1cnc(CCNC(=O)Nc2nc3c(s2)-c2c(c(-c4cncnc4)nn2-c2ccccc2Cl)CC3)c1 |
| < 800 | O=C(NC[C@H]1CCCN1C(=O)Cc1ccccc1)Nc1nc2c(s1)-c1c(c(-c3cncnc3)nn1-c1ccccc1Cl)CC2 |
| < 800 | CN(C)c1cccc(CNC(=O)Nc2nc3c(s2)-c2c(c(C4CC4)nn2-c2ccccc2Cl)CC3)c1 |
| < 800 | CC(C)(C)OC(=O)NCc1cccc(CNC(=O)Nc2nc3c(s2)-c2c(c(-c4cccnc4)nn2-c2ccccc2Cl)CC3)c1 |
| < 800 | CCc1cnc(CCNC(=O)Nc2nc3c(s2)-c2c(c(-c4ccccc4)nn2-c2cccc(Cl)c2)CC3)o1 |
| < 800 | COC(=O)CCNC(=O)Nc1nc2c(s1)-c1c(c(-c3cncnc3)nn1-c1ccccc1Cl)CC2 |
| < 800 | O=C(NCCn1cc[nH]c1=O)Nc1nc2c(s1)-c1c(c(-c3ccccc3)nn1-c1ccccc1Cl)CC2 |
| < 800 | CN1CCN(CCCNC(=O)Nc2nc3c(s2)-c2c(c(-c4cncnc4)nn2-c2ccccc2F)CC3)CC1 |
| < 800 | CC(C)c1cccc(CNC(=O)Nc2nc3c(s2)-c2c(c(C4CC4)nn2-c2ccccc2Cl)CC3)c1 |
| < 800 | O=C(Nc1nc2c(s1)-c1c(c(-c3cccnc3)nn1-c1ccccc1Cl)CC2)NC1CC1 |
| < 800 | CN1CCC(n2nc(-c3cccnc3)c3c2-c2sc(NC(=O)NCCc4nc(C5CC5)no4)nc2CC3)CC1 |
| < 800 | O=C1Cc2ccccc2CN1CC1CCN(C(=O)Nc2nc3c(s2)-c2c(c(-c4cccnc4)nn2-c2ccccc2Cl)CC3)C1 (stereo not given) |
| < 800 | CS(=O)(=O)NCCNC(=O)Nc1nc2c(s1)-c1c(c(-c3ccccc3)nn1-c1ccccc1Cl)CC2 |
| < 800 | CC(C)(C)OC(=O)N1CCCC(NC(=O)Nc2nc3c(s2)-c2c(c(-c4cncnc4)nn2-c2ccccc2Cl)CC3)C1 (stereo not given) |
| < 800 | O=C(NCCc1cn[nH]c1)Nc1nc2c(s1)-c1c(c(-c3cccnc3)nn1-c1ccccc1Cl)CC2 |
| < 800 | NC(=O)Nc1nc2c(s1)-c1c(c(-c3cccnc3)nn1-c1ccccc1Cl)CC2 |
| < 800 | O=C(NCCc1ccncc1)Nc1nc2c(s1)-c1c(c(-c3cccnc3)nn1-c1ccccc1Cl)CC2 |
| < 800 | CN(C)C(=O)CCNC(=O)Nc1nc2c(s1)-c1c(c(-c3ccccc3)nn1-c1ccccc1Cl)CC2 |
| < 800 | CN1CCN(c2ccc(NC(=O)Nc3nc4c(s3)-c3c(c(-c5cncnc5)nn3-c3ccccc3F)CC4)cc2)CC1 |
